Experimental data from ChEMBL document CHEMBL1135700, “Design, synthesis and activity of ascorbic acid prodrugs of nipecotic, kynurenic and diclophenamic acids, liable to increase neurotropic activity” (2002).

Experiments:
[1] = target: Solute carrier family 23 member 2 (Homo sapiens) (UniProt Q9UGH3); settings: 24 uM
Description: [14C]- AA uptake mediated by sodium-dependent ascorbate transporters, SVCT2 measured as Michaelis-Menten constant (Kt) at a concentration of 24 uM

[2] = target: Solute carrier family 23 member 2 (Homo sapiens) (UniProt Q9UGH3); settings: 12 uM
Description: [14C]- AA uptake mediated by sodium-dependent ascorbate transporters, SVCT2 measured as Michaelis-Menten constant (Kt) at a concentration of 12 uM

[3] = target: Solute carrier family 23 member 2 (Homo sapiens) (UniProt Q9UGH3); settings: 120 uM
Description: [14C]- AA uptake mediated by sodium-dependent ascorbate transporters, SVCT2 measured as Michaelis-Menten constant (Kt) at a concentration of 120 uM

[4] = target: Solute carrier family 23 member 2 (Homo sapiens) (UniProt Q9UGH3); settings: 6 uM
Description: [14C]- AA uptake mediated by sodium-dependent ascorbate transporters, SVCT2 measured as Michaelis-Menten constant (Kt) at a concentration of 6 uM

[5] = target: Solute carrier family 23 member 2 (Homo sapiens) (UniProt Q9UGH3); settings: 60 uM
Description: [14C]- AA uptake mediated by sodium-dependent ascorbate transporters, SVCT2 measured as Michaelis-Menten constant (Kt) at a concentration of 60 uM

[6] = tested on: O=C(O)Cc1ccccc1Nc1c(Cl)cccc1Cl; settings: 12 uM
Description: ([14C]- AA) and its uptake mediated by sodium-dependent ascorbate transporters, SVCT2 measured as Maximum velocity (Vmax) at concentration of 12 uM

[7] = tested on: O=C(O)Cc1ccccc1Nc1c(Cl)cccc1Cl; settings: 120 uM
Description: ([14C]- AA) and its uptake mediated by sodium-dependent ascorbate transporters, SVCT2 measured as Maximum velocity (Vmax) at concentration of 120 uM

[8] = tested on: O=C(O)Cc1ccccc1Nc1c(Cl)cccc1Cl; settings: 24 uM
Description: ([14C]- AA) and its uptake mediated by sodium-dependent ascorbate transporters, SVCT2 measured as Maximum velocity (Vmax) at concentration of 24 uM

[9] = tested on: O=C(O)Cc1ccccc1Nc1c(Cl)cccc1Cl; settings: 6 uM
Description: ([14C]- AA) and its uptake mediated by sodium-dependent ascorbate transporters, SVCT2 measured as Maximum velocity (Vmax) at concentration of 6 uM

[10] = tested on: O=C(O)Cc1ccccc1Nc1c(Cl)cccc1Cl; settings: 60 uM
Description: ([14C]- AA) and its uptake mediated by sodium-dependent ascorbate transporters, SVCT2 measured as Maximum velocity (Vmax) at concentration of 60 uM

Kt [1] [µM]	Kt [2] [µM]	Kt [3] [µM]	Kt [4] [µM]	Kt [5] [µM]	Compound	Vmax (nM hr-1 (10e6*cells)-1) [6]	Vmax (nM hr-1 (10e6*cells)-1) [7]	Vmax (nM hr-1 (10e6*cells)-1) [8]	Vmax (nM hr-1 (10e6*cells)-1) [9]	Vmax (nM hr-1 (10e6*cells)-1) [10]
31	29	28	32	29	O=C(O)Cc1ccccc1Nc1c(Cl)cccc1Cl					
					Solute carrier family 23 member 2 (Homo sapiens), Q9UGH3	2	0.26	1.4	3.1	0.49
